Each structure is given as a SMILES string. “And” between values parts separate entries of the source, which are not always exact repeats. Equal values may be shown once. Inconclusive results and toxic doses are left out.

The record followed here is PubChem BioAssay AID330 (DTP/NCI, 2004).

The test system of this experiment is P388 leukemia ip, CD2F1 mice, survival T/C. In words: NCI In Vivo Anticancer Drug Screen. Data for tumor model P388 Leukemia (intraperitoneal) in CD2F1 (CDF1) mice. Conditions: endpoint: median survival time, higher = longer survival. The gist of the method: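 Mice carrying the transplanted tumor received test compound or vehicle. Survival was recorded in each group, and the value is the treated-group measurement divided by that of the vehicle-treated control group.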

[1] abbreviates: dose: 50.0 mg/kg/injection, schedule: Q01DX009 (ip), vehicle: Klucel (hydroxypropylcellulose) (HPC).
[2] abbreviates: dose: 100.0 mg/kg/injection, schedule: Q01DX009 (ip), vehicle: Klucel (hydroxypropylcellulose) (HPC).
The mark [3] stands for this setting: dose: 200.0 mg/kg/injection, schedule: Q01DX009 (ip), vehicle: Klucel (hydroxypropylcellulose) (HPC).
[4] abbreviates: dose: 50.0 mg/kg/injection, schedule: Q01DX005 (ip), vehicle: Klucel (hydroxypropylcellulose) (HPC).
The mark [5] stands for this setting: dose: 100.0 mg/kg/injection, schedule: Q01DX005 (ip), vehicle: Klucel (hydroxypropylcellulose) (HPC).
The mark [6] stands for this setting: dose: 200.0 mg/kg/injection, schedule: Q01DX005 (ip), vehicle: Klucel (hydroxypropylcellulose) (HPC).
Where [7] appears, read: dose: 100.0 mg/kg/injection, schedule: Q01DX009 (ip), vehicle: saline with Tween-80.
Setting [8] is: dose: 50.0 mg/kg/injection, schedule: Q04DX002 (ip), vehicle: saline.
The mark [9] stands for this setting: dose: 100.0 mg/kg/injection, schedule: Q04DX002 (ip), vehicle: saline.
Where [10] appears, read: dose: 12.5 mg/kg/injection, schedule: Q01DX005 (ip), vehicle: saline with Tween-80.
Where [11] appears, read: dose: 50.0 mg/kg/injection, schedule: Q01DX005 (ip), vehicle: saline with Tween-80.
The mark [12] stands for this setting: dose: 50.0 mg/kg/injection, schedule: Q01DX009 (ip), vehicle: saline.
The mark [13] stands for this setting: dose: 100.0 mg/kg/injection, schedule: Q01DX009 (ip), vehicle: saline.
[14] abbreviates: dose: 60.0 mg/kg/injection, schedule: Q01DX005 (ip), vehicle: Klucel (hydroxypropylcellulose) (HPC).
Where [15] appears, read: dose: 120.0 mg/kg/injection, schedule: Q01DX005 (ip), vehicle: Klucel (hydroxypropylcellulose) (HPC).
The mark [16] stands for this setting: dose: 240.0 mg/kg/injection, schedule: Q01DX005 (ip), vehicle: Klucel (hydroxypropylcellulose) (HPC).
Where [17] appears, read: dose: 100.0 mg/kg/injection, schedule: Q01DX005 (ip), vehicle: saline with Tween-80.
[18] abbreviates: dose: 200.0 mg/kg/injection, schedule: Q01DX005 (ip), vehicle: saline with Tween-80.
Where [19] appears, read: dose: 50.0 mg/kg/injection, schedule: Q01DX009 (ip), vehicle: saline with Tween-80.
[20] abbreviates: dose: 6.25 mg/kg/injection, schedule: Q01DX005 (ip), vehicle: saline with Tween-80.

With `C/C=C1/CNC2Cc3c([nH]c4ccccc34)C(c3ccc4c5c([nH]c4c3)C3CC4CC(CC)C3N(CC5)C4)CC1C2C(=O)OC` (stereo not given), the T/C is, setting by setting: (dose: 2.5 mg/kg/injection, schedule: Q01DX009 (ip), vehicle: saline) 106 % of control; (dose: 5.0 mg/kg/injection, schedule: Q01DX009 (ip), vehicle: saline) 100 % of control.

On to `Cc1ccc(S(=O)(=O)N/N=C(\C(=O)O)c2ccccc2)cc1`, for which the T/C runs as follows: (dose: 12.5 mg/kg/injection, schedule: Q01DX009 (ip), vehicle: Klucel (hydroxypropylcellulose) (HPC)) 102 % of control; (dose: 25.0 mg/kg/injection, schedule: Q01DX009 (ip), vehicle: Klucel (hydroxypropylcellulose) (HPC)) 97 % of control; under setting [1], 96 % of control; under setting [2], 94 % of control; under setting [3], 93 % of control.

On to `Cc1nc2ccccc2c2c(N)cccc12`, for which the T/C is, setting by setting: (dose: 25.0 mg/kg/injection, schedule: Q01DX005 (ip), vehicle: Klucel (hydroxypropylcellulose) (HPC)) 105 % of control; under setting [4], 102 % of control; under setting [5], 98 % of control; under setting [6], 105 % of control.

Regarding `Cc1ccc2c(c1)=N/C(=N\c1nc(O)c(O)[nH]1)N=2`, the T/C runs as follows: (dose: 60.0 mg/kg/injection, schedule: Q01DX009 (ip), vehicle: saline with Tween-80) 106 % of control; under setting [7], 106 % of control; (dose: 140.0 mg/kg/injection, schedule: Q01DX009 (ip), vehicle: saline with Tween-80) 109 % of control; (dose: 210.0 mg/kg/injection, schedule: Q01DX009 (ip), vehicle: saline with Tween-80) 111 % of control.

Turning to `Cc1nccn1CC(=O)c1ccccc1`, the T/C (dose: 60.0 mg/kg/injection, schedule: Q01DX005 (ip), vehicle: saline with Tween-80) is 104 % of control and the T/C (dose: 120.0 mg/kg/injection, schedule: Q01DX005 (ip), vehicle: saline with Tween-80) is 104 % of control.

As to `Fc1c2ccccc2c2ccc3cccc4ccc1c2c43`, the T/C under setting [8] is 103 % of control and 104 % of control; the T/C (dose: 100.0 mg/kg/injection, schedule: Q04DX002 (ip), vehicle: saline with Tween-80) was 117 % of control; the T/C under setting [9] is 100 % of control and 110 % of control; the T/C (dose: 200.0 mg/kg/injection, schedule: Q04DX002 (ip), vehicle: saline) is 100 % of control and 113 % of control; the T/C (dose: 400.0 mg/kg/injection, schedule: Q04DX002 (ip), vehicle: saline) is 103 % of control.

For `CC(C)(C)C1=CCN(C(C)(C)/C=N\O)CC1`, the T/C is, setting by setting: under setting [10], 97 % of control; (dose: 25.0 mg/kg/injection, schedule: Q01DX005 (ip), vehicle: saline with Tween-80) 100 % of control; under setting [11], 100 % of control and 96 % of control.

As for `CCCCCCCC(=O)Nc1ccccc1CC`, the T/C was 100 % of control (dose: 100.0 mg/kg/injection, schedule: Q04DX003 (ip), vehicle: other); 100 % of control (dose: 200.0 mg/kg/injection, schedule: Q04DX003 (ip), vehicle: other); 95 % of control (dose: 400.0 mg/kg/injection, schedule: Q04DX003 (ip), vehicle: other).

`ClCc1cnc[nH]1`: the T/C is, setting by setting: under setting [12], 116 % of control; under setting [13], 111 % of control.

For the compound `CCc1c(-c2ccccc2)n[nH]c1-c1[nH]nc(-c2ccccc2)c1CC`, the T/C reads like this: under setting [14], 96 % of control; under setting [15], 96 % of control; under setting [16], 96 % of control.

On to `NC1=C(O)C(=O)C(c2ccc(C3OC(N)=C(O)C3=O)cc2)O1` (stereo not given), for which the T/C under setting [14] is 101 % of control, the T/C under setting [15] was 104 % of control and the T/C under setting [16] was 96 % of control.

Consider `O=C1NC2CSC(CCCCC(=O)ON3C(=O)CCC3=O)C2N1` (stereo not given), for which the T/C by setting is: under setting [11], 104 % of control; under setting [17], 116 % of control; under setting [18], 116 % of control.

As for `CC(C)N(/C=C/C(=O)c1ccccc1)C(C)C`, the T/C runs as follows: (dose: 12.5 mg/kg/injection, schedule: Q01DX009 (ip), vehicle: saline with Tween-80) 99 % of control; (dose: 25.0 mg/kg/injection, schedule: Q01DX009 (ip), vehicle: saline with Tween-80) 100 % of control; under setting [19], 94 % of control and 95 % of control.

`CCOC(=O)N1CCN(C(=S)N/N=C(\C)c2ncccn2)CC1`: the T/C is, setting by setting: under setting [20], 123 % of control; under setting [10], 97 % of control.

Consider `CN(C)CCC(CCc1ccccc1)OC(=O)c1ccc([N+](=O)[O-])cc1` (stereo not given), for which the T/C was 102 % of control under setting [8] and 107 % of control under setting [9].

Regarding `CCn1ncc2c(=O)c(C(=O)c3ccccc3)c[nH]c21`, the T/C was 99 % of control under setting [11], 97 % of control under setting [17] and 104 % of control under setting [18].

With `CSc1ccc(N=C(N)N)cc1`, the T/C is, setting by setting: under setting [19], 108 % of control; under setting [7], 110 % of control.

For the compound `COC(=O)CCC(NC(=O)C(CCCCN)N(C(=O)OCc1ccccc1)C(=O)OCc1ccccc1)C(=O)OC` (stereo not given), the T/C is 101 % of control under setting [11], 101 % of control under setting [17] and 98 % of control under setting [18].

For the compound `CN(C)CCC1C2CC3CC(C2)CC1C3` (stereo not given), the T/C by setting is: under setting [12], 94 % of control; under setting [13], 94 % of control.

Consider `N#C/C(=N\NC(=O)c1cccc(C(=O)N/N=C(\C#N)c2ccccc2Cl)n1)c1ccccc1Cl`, for which the T/C (dose: 1.5 mg/kg/injection, schedule: Q01DX005 (ip), vehicle: saline with Tween-80) is 92 % of control; the T/C (dose: 3.0 mg/kg/injection, schedule: Q01DX005 (ip), vehicle: saline with Tween-80) is 94 % of control; the T/C (dose: 6.0 mg/kg/injection, schedule: Q01DX005 (ip), vehicle: saline with Tween-80) is 94 % of control; the T/C under setting [20] is 91 % of control; the T/C under setting [18] is 100 % of control.

As for `NC12CCC(N)(c3ccccc31)c1ccccc12`, the T/C by setting is: under setting [14], 93 % of control; under setting [15], 98 % of control; under setting [16], 98 % of control.

Regarding `CCCCCCCCCCCC1=c2o[nH]c2=C(c2ccccn2)C(=O)C1=O`, the T/C runs as follows: under setting [11], 94 % of control; under setting [17], 86 % of control.

As to `N#Cc1ccc(NN=O)nc1`, the T/C is, setting by setting: (dose: 3.13 mg/kg/injection, schedule: Q01DX009 (ip), vehicle: water) 116 % of control and 123 % of control; (dose: 6.25 mg/kg/injection, schedule: Q01DX009 (ip), vehicle: water) 159 % of control; (dose: 12.5 mg/kg/injection, schedule: Q01DX009 (ip), vehicle: water) 151 % of control and 169 % of control; (dose: 25.0 mg/kg/injection, schedule: Q01DX009 (ip), vehicle: water) 194 % of control and 268 % of control.

On to `NNC1=NCCS1`, for which the T/C (dose: 0.31 mg/kg/injection, schedule: Q01DX009 (ip), vehicle: saline with Tween-80) is 101 % of control; the T/C (dose: 0.62 mg/kg/injection, schedule: Q01DX009 (ip), vehicle: saline with Tween-80) was 98 % of control; the T/C (dose: 1.25 mg/kg/injection, schedule: Q01DX009 (ip), vehicle: saline with Tween-80) was 104 % of control.

Turning to `Cn1c(=O)ccc2c3ncccc3c(C(F)(F)F)cc21`, the T/C (dose: 100.0 mg/kg/injection, schedule: Q01DX001 (ip), vehicle: saline with Tween-80) is 99 % of control; the T/C (dose: 200.0 mg/kg/injection, schedule: Q01DX001 (ip), vehicle: saline with Tween-80) is 100 % of control; the T/C (dose: 400.0 mg/kg/injection, schedule: Q01DX001 (ip), vehicle: saline with Tween-80) was 101 % of control.

Take `CCC1(CC)C(=O)ON(C(C)(C)N2OC(=O)C(CC)(CC)C2=O)C1=O`: the T/C is, setting by setting: under setting [4], 102 % of control; under setting [5], 104 % of control; under setting [6], 96 % of control.

With `CSc1ccccc1[As](c1ccccc1)c1ccccc1`, the T/C is 95 % of control under setting [1], 91 % of control under setting [2] and 97 % of control under setting [3].

In the case of `CC(C)CC(C)NC(=O)Nc1ccc(Cc2ccc(NC(=O)NC(C)CC(C)C)cc2)cc1` (stereo not given), the T/C is 96 % of control under setting [1], 97 % of control under setting [2] and 93 % of control under setting [3].
